Converted amounts (≈) assume the structure as drawn. Counter-ions that a name gives are not always drawn. Like-named read-outs stand apart in the source and are kept apart here.
Tests used:
HIV pol protease = HIV pol protease (Human immunodeficiency virus type 1 group M subtype B, UniProt P03366); assay: Assay of the inhibition of HIV pol protease (synthetic substrate TE-2, HPLC of TE-3)
Method: The Ki, that is the dissociation constant of the enzyme-inhibitor complex, measured according to the equation [formula]
A reaction mixture containing 1 mM or 1.5 mM of the substrate TE-2, having the structure described in European Patent Publication No. 498,680, 1 μl of the desired concentration of the compound to be tested (dissolved in dimethyl sulfoxide comprising 20% v/v water), 2 μl of the enzyme solution prepared as described in step (c), above, and buffer solution [50 mM tris HCl (pH 6.0), 0.25M sodium chloride, 0.1 mM ethylenediaminetetraacetic acid, 0.1 mM Triton X-100] to form 10 μl in total, was incubated for 30 minutes at 37° C.
The reaction was Stopped by the addition of 250 μl of a 0.1% w/v solution of aqueous trifluoroacetic acid and 10% v/v acetonitrile. The reaction mixture was then subjected to Sep-pak light™ chromatography (Waters Co., Milford, Mass., USA), and the fractions passing through the column were collected.
The substrate TE-2 is decomposed by the HIV protease to form a shortened peptide of four amino acids, (TE-3; having the structure described in European Patent Publication No. 498,680). The amount of TE-3 formed was assayed quantitatively using a high performance liquid chromatography (HPLC) column [ODS-120T (Trade Mark), 4.6 mm in inner diameter ×250 mm, To-So Co.] using a mixture of 9% acetonitrile-0.05% trifluoroacetic acid as the eluting solvent.
The Ki in nM was calculated according to the method of Michaelis-Menten using the equation given above.

Molt 4/HTLV IIIB = assay: Inhibition of the release of virus from Molt 4 cells chronically infected with HIV; type: cell-based, HIV (HTLVIIIB)
Method: Inhibition of the Release of Virus from Molt 4 Cells Chronically Infected with HIV (Molt 4/HTLV IIIB)
A Molt 4 cell line chronically infected with HIV, that is with HTLVIIIB, was established (Molt 4/HTLVIIIB). The cells were washed twice with growth medium (RPMI-1640 medium containing 10% v/v heat-inactivated fetal calf serum). The washed cells were then inoculated into growth medium at a density of 2×10^5 cells/ml, in the presence of selected concentrations of test compounds, at 37° C., and cultured under an atmosphere of 5% carbon dioxide.
After 48 hours, the test cultures were spun down at 1000×g for 3 minutes, and the supernatant was collected. Polyethylene glycol 6000 was added to the supernatant to a final concentration of 10% w/v, and the resulting solution was left to stand for 6 hours on ice. Virions precipitated by this procedure were subsequently obtained as a pellet by centrifuging the treated supernatants for 30 minutes at 10000×g. The amount of HIV antigen in the pellets was then determined using a commercial enzyme immunoassay (EIA) system [HIV antigen EIA kit, available from Abbot].
IC50 (the minimum concentration of test compound sufficient to reduce the amount of HIV antigen production by 50%, as determined by the EIA system) was used as a measure of anti-HIV activity.

| SMILES | Ki (HIV pol protease) [µM] | further results |
| --- | --- | --- |
| CC(C)(C)NC(=O)[C@@H]1CCCN1C(=O)[C@@H](O)[C@H](Cc1ccccc1)NC(=O)[C@H](CC(N)=O)NC(=O)COc1ccc(NC(=O)OCc2ccccc2)cc1 [Example 16, 1-[(2S,3S)-3-{N^2-[4-(Benzyloxycarbonylamino)phenoxyacetyl]-L-asparaginyl}amino-2-hydroxy-4-phenylbutyryl]-N-t-butyl-L-prolinamide] | 0.014 | – |
| CC(C)(C)NC(=O)[C@@H]1C[C@H](Cl)CN1C(=O)[C@@H](O)[C@H](Cc1ccccc1)NC(=O)[C@H](CC(N)=O)NC(=O)OCc1ccccc1 [Example 1, (4S)-1-[(2S,3S)-3-(N^2 -Benzyloxycarbonyl-L-asparaginyl)amino-2-hydroxy-4-phenylbutyryl]-N-t-butyl-4-chloro-L-prolinamide] | 0.008 | – |
| CC(C)(C)NC(=O)[C@@H]1C[C@@H](O)CN1C(=O)[C@@H](O)[C@H](Cc1ccccc1)NC(=O)[C@H](CC(N)=O)NC(=O)OCc1ccccc1 [Example 4, (4R)-1-[(2S,3S)-3-(N^2 -Benzyloxycarbonyl-L-asparaginyl)amino-2-hydroxy-4-phenylbutyryl]-N-t-butyl-4-hydroxy-L-prolinamide] | 0.056 | – |
| CC(C)(C)NC(=O)[C@@H]1C[C@H](Cl)CN1C(=O)[C@@H](O)[C@H](Cc1ccccc1)NC(=O)[C@H](CC(N)=O)NC(=O)c1cnc2ccccc2n1 [Example 14, (4S)-1-{(2S,3S)-3-[N^2-(2-Quinoxalinecarbonyl)-L-asparaginyl]amino-2-hydroxy-4-phenylbutyryl}-N-t-butyl-4-chloro-L-prolinamide] | 0.0047 | IC50 (Molt 4/HTLV IIIB; Human immunodeficiency virus 1, IIIB, MOLT-4, 48 h, read-out: IC50 (concentration reducing HIV antigen production by 50%)): 0.39 µg/mL (≈ 0.598 µM) |
| CNc1ccc(OCC(=O)N[C@@H](CC(N)=O)C(=O)N[C@@H](Cc2ccccc2)[C@H](O)C(=O)N2CCC[C@H]2C(=O)NC(C)(C)C)cc1 [Example 20, 1-[(2S,3S)-3-{N^2-[4-(Methylamino)phenoxyacetyl]-L-asparaginyl}amino-2-hydroxy-4-phenylbutyryl]-N-t-butyl-L-prolinamide hydrochloride] | 0.049 | – |
| CC(C)(C)NC(=O)[C@@H]1CCCN1C(=O)[C@@H](O)[C@H](Cc1ccccc1)NC(=O)[C@H](CC(N)=O)NC(=O)COc1ccc(N)cc1 [Example 17, 1-{(2S,3S)-3-[N^2-(4-Aminophenoxyacetyl)-L-asparaginyl)amino-2-hydroxy-4-phenylbutyryl]-N-t-butyl-L-prolinamide hydrochloride] | 0.0185 | – |
| CN(C)c1ccc(OCC(=O)N[C@@H](CC(N)=O)C(=O)N[C@@H](Cc2ccccc2)[C@H](O)C(=O)N2CCC[C@H]2C(=O)NC(C)(C)C)cc1 [Example 21, 1-[(2S,3S)-3-{N^2-[4-(N,N-Dimethylamino)phenoxyacetyl]-L-asparaginyl}amino-2-hydroxy-4-phenylbutyryl]-N-t-butyl-L-prolinamide] | 0.037 | – |
| CC(C)(C)NC(=O)[C@@H]1CCCN1C(=O)[C@@H](O)[C@H](Cc1ccccc1)NC(=O)[C@H](CC(N)=O)NC(=O)COc1ccc(NC(=O)CN)cc1 [Example 18, 1-[(2S,3S)-3-{N^2-[4-(Glycylamino)phenoxyacetyl]-L-asparaginyl}amino-2-hydroxy-4-phenylbutyryl]-N-t-butyl-L-prolinamide hydrochloride] | 0.03 | – |
| CC(C)(C)NC(=O)[C@@H]1C[C@@H]2CCCC[C@@H]2CN1C[C@@H](O)[C@H](Cc1ccccc1)NC(=O)[C@H](CC(N)=O)NC(=O)c1ccc2ccccc2n1 [Ro31-8959, 3-t-butylaminocarbonyl-2-{(2R, 3S)-3-[(N-2'-quinolinecarbonyl-L-asparaginyl)amino]-2-hydroxy-4-phenylbutyl}-(3S, 4aS, 8aS)-decahydroisoquinoline, reference compound] | – | IC50 (concentration reducing HIV antigen production by 50%) (Molt 4/HTLV IIIB; Molt 4/HTLVIIIB cells, 48 hours, HIV antigen in precipitated virions by EIA): > 20.0 µg/mL; Ki (HIV pol protease; 1 mM or 1.5 mM substrate TE-2, pH 6.0, 30 minutes at 37° C., calculated by Michaelis-Menten): 0.058 µM |

From US5629406A, “Inhibitors of HIV protease” (Sankyo Company, Limited, priority 1992, dated 1997)
